{
  "source": "patent US8575178B2",
  "about": "“Isothiazolo-pyrimidinedione derivatives as TRPA1 modulators” (Glenmark Pharmaceuticals S.A., priority 2009, dated 2013)",
  "key": {"[1]": {"target": "T1, human TRPA1 (Homo sapiens, UniProt O75762)", "T1 construct": "expressed in transfected cells; host or cells: CHO cells (G-418 selection)", "T1 sequence (O75762 whole entry)": "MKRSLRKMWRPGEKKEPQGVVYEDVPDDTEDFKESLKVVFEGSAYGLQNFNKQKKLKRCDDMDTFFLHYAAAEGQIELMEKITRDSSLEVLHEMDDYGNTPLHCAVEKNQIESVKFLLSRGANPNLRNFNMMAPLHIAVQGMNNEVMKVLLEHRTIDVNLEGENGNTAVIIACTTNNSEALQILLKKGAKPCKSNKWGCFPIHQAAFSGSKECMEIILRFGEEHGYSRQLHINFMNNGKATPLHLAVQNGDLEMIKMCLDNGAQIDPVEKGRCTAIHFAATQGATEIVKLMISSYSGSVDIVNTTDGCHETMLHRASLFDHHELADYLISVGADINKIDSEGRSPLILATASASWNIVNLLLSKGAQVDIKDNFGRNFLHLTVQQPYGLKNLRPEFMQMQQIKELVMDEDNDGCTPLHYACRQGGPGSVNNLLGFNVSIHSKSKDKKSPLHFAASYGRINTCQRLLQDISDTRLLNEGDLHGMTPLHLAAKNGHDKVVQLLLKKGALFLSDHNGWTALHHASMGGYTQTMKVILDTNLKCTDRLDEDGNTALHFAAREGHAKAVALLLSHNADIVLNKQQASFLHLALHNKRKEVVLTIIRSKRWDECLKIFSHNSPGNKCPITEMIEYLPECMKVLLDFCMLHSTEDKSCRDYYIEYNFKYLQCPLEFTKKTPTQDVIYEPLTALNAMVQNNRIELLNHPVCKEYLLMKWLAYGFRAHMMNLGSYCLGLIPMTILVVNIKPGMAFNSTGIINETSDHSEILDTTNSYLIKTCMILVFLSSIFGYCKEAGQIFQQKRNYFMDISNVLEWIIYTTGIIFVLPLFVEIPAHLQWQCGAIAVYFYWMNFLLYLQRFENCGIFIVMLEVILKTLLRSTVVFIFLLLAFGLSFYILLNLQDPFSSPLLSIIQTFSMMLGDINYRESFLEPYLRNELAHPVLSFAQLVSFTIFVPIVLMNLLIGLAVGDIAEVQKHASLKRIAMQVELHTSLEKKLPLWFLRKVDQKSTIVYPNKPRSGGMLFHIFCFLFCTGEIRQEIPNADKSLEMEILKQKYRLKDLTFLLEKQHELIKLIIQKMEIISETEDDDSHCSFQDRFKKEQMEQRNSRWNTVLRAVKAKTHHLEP", "assay": "45Calcium uptake assay, inhibition of AITC induced calcium uptake in human TRPA1 expressing CHO cells", "assay_type": "cell-based", "details": "AITC 30 μM; for inhibition at 1 µM: 1.0 μM compound, read-out: human TRPA1 Percentage inhibition at 1.0 μM; for inhibition at 10 µM: 10.0 μM compound, read-out: human TRPA1 Percentage inhibition at 10.0 μM", "description": "(§1) The illustrative examples of the present invention are screened for TRPA1 activity according to a modified procedure described in (a) Tóth, A. et al. Life Sciences, 2003, 73, 487-498. (b) McNamara C, R. et al, Proc. Natl. Acad. Sci. U.S.A., 2007, 104, 13525-13530. The screening of the compounds can be carried out by other methods and procedures known to persons skilled in the art.\n(§2) Screening for TRPA1 Antagonist Using the ^45Calcium Uptake Assay:\n(§3) The inhibition of TRPA1 receptor activation was measured as inhibition of allyl isothiocyanate (AITC) induced cellular uptake of radioactive calcium.\n(§4) Test compounds were dissolved in 100% DMSO to prepare 10 mM stock and then diluted using plain medium with 0.1% BSA and 1.8 mM CaCl2 to get the desired concentration. The final concentration of DMSO in the reaction was 0.5% (v/v). Human TRPA1 expressing CHO cells were grown in F-12 DMEM medium with 10% FBS, 1% penicillin-streptomycin solution, and 400 μg/ml of G-418. Rat TRPA1 expressing CHO cells were grown in F-12 DMEM medium with 10% FBS, 1% penicillin-streptomycin solution, and 400 μg/ml of Zeocin. Cells were seeded 24 h prior to the assay in 96 well plates so as to get ˜50,000 cells per well on the day of experiment. Cells were treated with the test compounds for 10 minutes followed by the addition of AITC at a final concentration of 30 μM (for human TRPA1) and/or 10 μM (for rat TRPA1) and 5 μCi/ml ^45Ca^+2 for 3 minutes. Cells were washed and lysed using a buffer containing 1% Triton X-100, 0.1% deoxycholate and 0.1% SDS. Radioactivity in the lysate was measured in a Packard TopCount after addition of liquid scintillant. (Toth et al, Life Sciences (2003) 73, 487-498; McNamara C R et al, Proceedings of the National Academy of Sciences, (2007) 104, 13525-13530).\n(§5) Concentration response curves were plotted as a % of maximal response obtained in the absence of test antagonist. IC50 values can be calculated from concentration response curve by nonlinear regression analysis using GraphPad PRISM software."}, "[2]": {"target": "T2, rat TRPA1 (Rattus norvegicus, UniProt Q6RI86)", "T2 construct": "expressed in transfected cells; host or cells: CHO cells (Zeocin selection)", "T2 sequence (Q6RI86 whole entry)": "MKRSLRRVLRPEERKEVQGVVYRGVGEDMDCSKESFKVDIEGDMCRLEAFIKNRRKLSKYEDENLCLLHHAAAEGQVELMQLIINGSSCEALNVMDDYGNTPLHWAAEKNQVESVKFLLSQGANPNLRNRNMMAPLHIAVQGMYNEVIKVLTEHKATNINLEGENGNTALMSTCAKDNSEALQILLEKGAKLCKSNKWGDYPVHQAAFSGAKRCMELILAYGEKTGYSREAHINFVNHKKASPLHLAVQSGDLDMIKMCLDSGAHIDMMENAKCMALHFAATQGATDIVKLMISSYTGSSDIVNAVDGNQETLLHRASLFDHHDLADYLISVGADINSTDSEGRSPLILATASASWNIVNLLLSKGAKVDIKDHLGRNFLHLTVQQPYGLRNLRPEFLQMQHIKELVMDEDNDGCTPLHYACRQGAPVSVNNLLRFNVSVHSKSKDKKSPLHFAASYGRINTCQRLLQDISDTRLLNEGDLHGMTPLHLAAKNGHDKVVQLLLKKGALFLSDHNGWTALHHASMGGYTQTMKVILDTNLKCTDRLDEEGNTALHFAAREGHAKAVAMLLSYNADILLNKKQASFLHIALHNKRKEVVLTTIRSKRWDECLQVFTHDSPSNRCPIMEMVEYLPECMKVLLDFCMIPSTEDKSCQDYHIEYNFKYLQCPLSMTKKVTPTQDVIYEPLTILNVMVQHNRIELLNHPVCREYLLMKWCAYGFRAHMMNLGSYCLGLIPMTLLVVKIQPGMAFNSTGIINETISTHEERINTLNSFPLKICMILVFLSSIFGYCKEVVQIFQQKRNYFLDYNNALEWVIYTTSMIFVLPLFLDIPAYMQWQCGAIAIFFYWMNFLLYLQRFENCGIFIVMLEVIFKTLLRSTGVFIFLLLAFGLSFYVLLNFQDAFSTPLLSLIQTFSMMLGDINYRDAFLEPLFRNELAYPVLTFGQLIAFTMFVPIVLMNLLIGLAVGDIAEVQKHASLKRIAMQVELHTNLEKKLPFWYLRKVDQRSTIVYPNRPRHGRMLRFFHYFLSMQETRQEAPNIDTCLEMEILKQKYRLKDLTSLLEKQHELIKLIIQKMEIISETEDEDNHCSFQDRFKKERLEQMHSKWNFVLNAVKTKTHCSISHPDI", "assay": "45Calcium uptake assay, inhibition of AITC induced calcium uptake in rat TRPA1 expressing CHO cells", "assay_type": "cell-based", "details": "AITC 10 μM; for inhibition at 1 µM: 1.0 μM compound, read-out: rat TRPA1 Percentage inhibition at 1.0 μM; for inhibition at 10 µM: 10.0 μM compound, read-out: rat TRPA1 Percentage inhibition at 10.0 μM", "description": "as §1, §2, §3, §4, §5"}},
  "data": [
    {"molecule": "Cn1c(=O)c2c(CC(=O)Nc3nc(-c4cccc(C(F)(F)F)c4)cs3)nsc2n(C)c1=O", "note": "[Example 13, 2-(5,7-Dimethyl-4,6-dioxo-4,5,6,7-tetrahydro[1,2]thiazolo[5,4-d]pyrimidin-3-yl)-N-{4-[3-(trifluoromethyl)phenyl]-1,3-thiazol-2-yl}acetamide]", "values": [
      {"measurement": "inhibition at 1 µM", "setting": "[1]", "result": 99.7, "unit": "%"},
      {"measurement": "inhibition at 10 µM", "setting": "[1]", "result": 99.8, "unit": "%"},
      {"measurement": "IC50", "setting": "[1]", "result": "< 50", "unit": "nM"},
      {"measurement": "inhibition at 1 µM", "setting": "[2]", "result": 99.3, "unit": "%"},
      {"measurement": "inhibition at 10 µM", "setting": "[2]", "result": 99.3, "unit": "%"}
    ]},
    {"molecule": "Cn1c(=O)c2c(CC(=O)Nc3nc(-c4cccc(C(F)(F)F)c4F)cs3)nsc2n(C)c1=O", "note": "[Example 23, 2-(5,7-Dimethyl-4,6-dioxo-4,5,6,7-tetrahydro[1,2]thiazolo[5,4-d]pyrimidin-3-yl)-N-{4-[2-fluoro-3-(trifluoromethyl)phenyl]-1,3-thiazol-2-yl}acetamide]", "values": [
      {"measurement": "inhibition at 1 µM", "setting": "[1]", "result": 99.3, "unit": "%"},
      {"measurement": "inhibition at 10 µM", "setting": "[1]", "result": 100, "unit": "%"},
      {"measurement": "IC50", "setting": "[1]", "result": "< 50", "unit": "nM"},
      {"measurement": "inhibition at 1 µM", "setting": "[2]", "result": 100, "unit": "%"},
      {"measurement": "inhibition at 10 µM", "setting": "[2]", "result": 100, "unit": "%"},
      {"measurement": "IC50", "setting": "[2]", "result": "< 50", "unit": "nM"}
    ]},
    {"molecule": "Cn1c(=O)c2c(CC(=O)Nc3nc(-c4ccc(C(F)(F)F)c(F)c4F)cs3)nsc2n(C)c1=O", "note": "[Example 39, N-{4-[2,3-Difluoro-4-(trifluoromethyl)phenyl]-1,3-thiazol-2-yl}-2-(5,7-dimethyl-4,6-dioxo-4,5,6,7-tetrahydro[1,2]thiazolo[5,4-d]pyrimidin-3-yl)acetamide]", "values": [
      {"measurement": "inhibition at 1 µM", "setting": "[1]", "result": 99.8, "unit": "%"},
      {"measurement": "inhibition at 10 µM", "setting": "[1]", "result": 99.9, "unit": "%"},
      {"measurement": "inhibition at 1 µM", "setting": "[2]", "result": 96.5, "unit": "%"},
      {"measurement": "inhibition at 10 µM", "setting": "[2]", "result": 95.8, "unit": "%"}
    ]},
    {"molecule": "Cn1c(=O)c2c(CC(=O)Nc3nc(-c4ccc(OC(F)(F)F)c(F)c4)cs3)nsc2n(C)c1=O", "note": "[Example 25, 2-(5,7-Dimethyl-4,6-dioxo-4,5,6,7-tetrahydro[1,2]thiazolo[5,4-d]pyrimidin-3-yl)-N-{4-[3-fluoro-4-(trifluoromethoxy)phenyl]-1,3-thiazol-2-yl}acetamide]", "values": [
      {"measurement": "inhibition at 1 µM", "setting": "[1]", "result": 99.9, "unit": "%"},
      {"measurement": "inhibition at 10 µM", "setting": "[1]", "result": 100, "unit": "%"},
      {"measurement": "IC50", "setting": "[1]", "result": "< 50", "unit": "nM"},
      {"measurement": "inhibition at 1 µM", "setting": "[2]", "result": 98.8, "unit": "%"},
      {"measurement": "inhibition at 10 µM", "setting": "[2]", "result": 100, "unit": "%"},
      {"measurement": "IC50", "setting": "[2]", "result": "50 to 100", "unit": "nM"}
    ]},
    {"molecule": "Cn1c(=O)c2c(CC(=O)Nc3nc(-c4cccc(C(F)(F)F)c4F)cs3)snc2n(C)c1=O", "note": "[Example 5, 2-(5,7-Dimethyl-4,6-dioxo-4,5,6,7-tetrahydro[1,2]thiazolo[3,4-d]pyrimidin-3-yl)-N-{4-[2-fluoro-3-(trifluoromethyl)phenyl]-1,3-thiazol-2-yl}acetamide]", "values": [
      {"measurement": "inhibition at 1 µM", "setting": "[1]", "result": 98.1, "unit": "%"},
      {"measurement": "inhibition at 10 µM", "setting": "[1]", "result": 99.1, "unit": "%"},
      {"measurement": "IC50", "setting": "[1]", "result": "< 50", "unit": "nM"},
      {"measurement": "inhibition at 1 µM", "setting": "[2]", "result": 95.6, "unit": "%"},
      {"measurement": "inhibition at 10 µM", "setting": "[2]", "result": 98.5, "unit": "%"}
    ]},
    {"molecule": "Cn1c(=O)c2c(CC(=O)Nc3nc(-c4ccc(F)c(C(F)(F)F)c4F)cs3)nsc2n(C)c1=O", "note": "[Example 37, N-{4-[2,4-Difluoro-3-(trifluoromethyl)phenyl]-1,3-thiazol-2-yl}-2-(5,7-dimethyl-4,6-dioxo-4,5,6,7-tetrahydro[1,2]thiazolo[5,4-d]pyrimidin-3-yl)acetamide]", "values": [
      {"measurement": "inhibition at 1 µM", "setting": "[1]", "result": 98.3, "unit": "%"},
      {"measurement": "inhibition at 10 µM", "setting": "[1]", "result": 99.3, "unit": "%"},
      {"measurement": "IC50", "setting": "[1]", "result": "< 50", "unit": "nM"},
      {"measurement": "IC50", "setting": "[2]", "result": "< 50", "unit": "nM"}
    ]},
    {"molecule": "Cn1c(=O)c2c(CC(=O)Nc3ccn(-c4ccc(Br)cc4)n3)snc2n(C)c1=O", "note": "[Example 11, N-[1-(4-Bromophenyl)-1H-pyrazol-3-yl]-2-(5,7-dimethyl-4,6-dioxo-4,5,6,7-tetrahydro[1,2]thiazolo[3,4-d]pyrimidin-3-yl)acetamide]", "values": [
      {"measurement": "inhibition at 1 µM", "setting": "[1]", "result": 100, "unit": "%"},
      {"measurement": "inhibition at 10 µM", "setting": "[1]", "result": 100, "unit": "%"},
      {"measurement": "IC50", "setting": "[1]", "result": "< 50", "unit": "nM"},
      {"measurement": "inhibition at 1 µM", "setting": "[2]", "result": 22.9, "unit": "%"},
      {"measurement": "inhibition at 10 µM", "setting": "[2]", "result": 39.7, "unit": "%"}
    ]},
    {"molecule": "Cn1c(=O)c2c(CC(=O)Nc3nc(-c4ccc(F)c(C(F)(F)F)c4F)cs3)snc2n(C)c1=O", "note": "[Example 9, N-{4-[2,4-Difluoro-3-(trifluoromethyl)phenyl]-1,3-thiazol-2-yl}-2-(5,7-dimethyl-4,6-dioxo-4,5,6,7-tetrahydro[1,2]thiazolo[3,4-d]pyrimidin-3-yl)acetamide]", "values": [
      {"measurement": "inhibition at 1 µM", "setting": "[1]", "result": 98.4, "unit": "%"},
      {"measurement": "inhibition at 10 µM", "setting": "[1]", "result": 98.1, "unit": "%"},
      {"measurement": "IC50", "setting": "[1]", "result": "< 50", "unit": "nM"},
      {"measurement": "inhibition at 1 µM", "setting": "[2]", "result": 94.7, "unit": "%"},
      {"measurement": "inhibition at 10 µM", "setting": "[2]", "result": 94.1, "unit": "%"}
    ]}
  ]
}
